Converted amounts (≈) assume the structure as drawn.
Assays:
[1] = species on record: Cavia porcellus; test: Evaluated in vitro for complement activity using guinea pig serum was determined by cap 50 assay; type: functional; conditions: for EC50: read-out: ED50 (the source's name)
[2] = system: Cavia porcellus; test: Evaluated in vivo after intraperitoneal administration by guinea pig assay; type: functional
[3] = species on record: Homo sapiens; test: The ability to inhibit late component of human complement (C3-C9) using C-late assay
[4] = species on record: Homo sapiens; test: Ability to destroy fluid-phase human complement 1 in the presence of complement 4 with appropriate serial twofold dilutions of the test compound using C1 assay
[5] = Inhibition of the complement alternative pathway by Mercaptan-treated human erythrocytes lyse in autologous serum via the alternative pathway activated by cobra venom factor in the presence of appropriate serial twofold dilutions of the test compound

SMILES | Activity [1] [µg/mL] | Inhibition [2] [%] | ED50 [3] [µg/mL] | ED50 [4] [µg/mL] | ED50 [5] [µg/mL] | EC50 [1] [µg/mL]
Nc1ccc2cc(S(=O)(=O)[O-])cc(O)c2c1/N=N/c1ccc(NC(=O)Nc2ccc(/N=N/c3c(N)ccc4cc(S(=O)(=O)[O-])cc(O)c34)c(S(=O)(=O)[O-])c2)cc1S(=O)(=O)[O-].[Na+].[Na+].[Na+].[Na+] | 113 | >95 | 6 | 21 | 167 | 
O=S(=O)([O-])c1cc(NS(=O)(=O)c2ccc3c(S(=O)(=O)Nc4cc(S(=O)(=O)[O-])cc(S(=O)(=O)[O-])c4)cc(S(=O)(=O)Nc4cc(S(=O)(=O)[O-])cc(S(=O)(=O)[O-])c4)cc3c2)cc(S(=O)(=O)[O-])c1.[Na+].[Na+].[Na+].[Na+].[Na+].[Na+] |  | 86 | 12 | 0.7 | 21 | 21
Cc1ccc(C(=O)Nc2ccc(S(=O)(=O)O)c3cc(S(=O)(=O)O)cc(S(=O)(=O)O)c23)cc1NC(=O)c1cccc(NC(=O)Nc2cccc(C(=O)Nc3cc(C(=O)Nc4ccc(S(=O)(=O)O)c5cc(S(=O)(=O)O)cc(S(=O)(=O)O)c45)ccc3C)c2)c1 [SURAMIN] |  | 44 | 50 (≈ 38.5 µM) | 21 | 167 | 603 (≈ 465 µM)

— ChEMBL document CHEMBL1121398, “Synthetic modulators of the complement system. 1. Synthesis and biological activity of 5,5',5''-[1,3,6-naphthalenetriyltris(sulfonylimino)]-tris[1,3-benzenedisulfonic acid] hexasodium salt” (1980)
